Tests used:
human kinase Mps-1 = target: T1, human kinase Mps-1 (Homo sapiens, UniProt P33981); test: Mps-1 Kinase Assay (TR-FRET); type: biochemical; details: 10 μM ATP
T1 construct: N-terminally GST-tagged human full length recombinant Mps-1 kinase; purchased Invitrogen, Karslruhe, Germany PV4071
T1 sequence (P33981 1-857): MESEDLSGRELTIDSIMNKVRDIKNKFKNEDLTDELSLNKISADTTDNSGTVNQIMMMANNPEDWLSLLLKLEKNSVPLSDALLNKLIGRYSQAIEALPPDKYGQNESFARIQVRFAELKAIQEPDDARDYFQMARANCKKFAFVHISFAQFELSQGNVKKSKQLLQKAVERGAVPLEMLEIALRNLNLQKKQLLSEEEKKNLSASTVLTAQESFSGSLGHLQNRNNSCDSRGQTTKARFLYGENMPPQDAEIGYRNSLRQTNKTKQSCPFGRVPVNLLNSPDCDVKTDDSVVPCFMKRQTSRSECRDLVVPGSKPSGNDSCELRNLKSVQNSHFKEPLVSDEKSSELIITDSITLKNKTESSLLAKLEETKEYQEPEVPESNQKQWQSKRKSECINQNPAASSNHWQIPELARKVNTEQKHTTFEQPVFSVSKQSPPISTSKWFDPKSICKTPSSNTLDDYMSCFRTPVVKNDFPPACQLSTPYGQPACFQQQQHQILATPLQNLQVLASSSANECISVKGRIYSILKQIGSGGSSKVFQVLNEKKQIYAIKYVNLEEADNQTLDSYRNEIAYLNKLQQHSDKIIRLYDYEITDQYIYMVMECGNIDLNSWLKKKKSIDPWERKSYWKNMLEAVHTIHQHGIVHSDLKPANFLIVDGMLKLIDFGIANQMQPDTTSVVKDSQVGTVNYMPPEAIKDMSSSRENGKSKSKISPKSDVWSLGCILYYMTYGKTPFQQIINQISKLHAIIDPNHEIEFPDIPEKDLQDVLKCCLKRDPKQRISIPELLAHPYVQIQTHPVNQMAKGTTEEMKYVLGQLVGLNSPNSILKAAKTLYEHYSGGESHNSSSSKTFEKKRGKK
Method: The human kinase Mps-1 phosphorylates a biotinylated substrate peptide. Detection of the phosphorylated product is achieved by time-resolved fluorescence resonance energy transfer (TR-FRET) from Europium-labelled anti-phospho-Serine/Threonine antibody as donor to streptavidin Labelled with cross-linked allophycocyanin (SA-XLent) as acceptor. Compounds are tested for their inhibition of the kinase activity.
N-terminally GST-tagged human full length recombinant Mps-1 kinase (purchased from Invitrogen, Karslruhe, Germany, cat. no PV4071) was used. As substrate for the kinase reaction a biotinylated peptide of the amino-acid sequence […] (C-terminus in amide form, purchased from Biosynthan GmbH, Berlin) was used.
The concentration of Mps-1 in the assay was adjusted to the activity of the enzyme lot and was chosen appropriate to have the assay in the linear range, typical enzyme concentrations were in the range of about 1 nM (final conc. in the 5 μl assay volume).
The resulting mixture was incubated 1 h at 22° C. to allow the binding of the phosphorylated peptide to the anti-phospho(Ser/Thr)-Europium-antibody. Subsequently the amount of phosphorylated substrate was evaluated by measurement of the resonance energy transfer from the Europium-labelled anti-phospho(Ser/Thr) antibody to the Streptavidin-XLent.

rat hepatocytes = test: In vitro metabolic stability in rat hepatocytes; type: in vitro ADME; details: 1 μM test compound, calculated from half-life
Method: Investigation of In Vitro Metabolic Stability in Rat Hepatocytes (Including Calculation of Hepatic In Vivo Blood Clearance (CL))
Hepatocytes from Han Wistar rats were isolated via a 2-step perfusion method. After perfusion, the liver was carefully removed from the rat: the liver capsule was opened and the hepatocytes were gently shaken out into a Petri dish with ice-cold WME. The resulting cell suspension was filtered through sterile gaze in 50 ml falcon tubes and centrifuged at 50×g for 3 min at room temperature.
The cell pellet was resuspended in 30 ml WME and centrifuged through a Percoll® gradient for 2 times at 100×g. The hepatocytes were washed again with Williams' medium E (WME) and resuspended in medium containing 5% FCS. Cell viability was determined by trypan blue exclusion.
For the metabolic stability assay liver cells were distributed in WME containing 5% FCS to glass vials at a density of 1.0×10^6 vital cells/m. The test compound was added to a final concentration of 1 μM. During incubation, the hepatocyte suspensions were continuously shaken and aliquots were taken at 2, 8, 16, 30, 45 and 90 min, to which equal volumes of cold methanol were immediately added. Samples were frozen at −20° C. over night, after subsequently centrifuged for 15 minutes at 3000 rpm and the supernatant was analyzed with an Agilent 1200 HPLC-system with LCMS/MS detection.
The half-life of a test compound was determined from the concentration-time plot. From the half-life the intrinsic clearances were calculated. Together with the additional parameters liver blood flow, amount of liver cells in vivo and in vitro. The hepatic in vivo blood clearance (CL) and the maximal oral bioavailability (Fmax) was calculated. The following parameter values were used: Liver blood flow—4.2 L/h/kg rat; specific liver weight—32 g/kg rat body weight; liver cells in vivo—1.1×10^8 cells/g liver, liver cells in vitro—0.5×10^6/ml.

Row | Structure (SMILES) | IC50 (human kinase Mps-1) [nM] | Fmax (maximal oral bioavailability) (rat hepatocytes) [%]
1 | C=C(c1cc(NCCC(F)(F)F)c2ncc(-c3ccc(C(=O)NC4CC4)c(C)c3)n2n1)c1cc(F)ccc1O [Compound A22, N-cyclopropyl-4-{6-[1-(5-fluoro-2-hydroxyphenyl)ethenyl]-8-[(3,3,3-trifluoropropyl)amino]imidazo[1,2-b]pyridazin-3-yl}-2-methylbenzamide] | 0.4 | 28
2 | Cc1cc(-c2cnc3c(NCCC(F)(F)F)cc(C4(c5cccc(F)c5)CC4)nn23)ccc1C(=O)NC1CC1 [Compound A25, N-cyclopropyl-4-{6-[1-(3-fluorophenyl)cyclopropyl]-8-[(3,3,3-trifluoropropyl)amino]imidazo[1,2-b]pyridazin-3-yl}-2-methylbenzamide] | 0.9 | 52
3 | Cc1cc(-c2cnc3c(NCCC(F)(F)F)cc(C(C)(O)c4cccc(F)c4O)nn23)ccc1C(=O)NC1CC1 (racemic) [Compound A4, (RS)—N-Cyclopropyl-4-{6-[1-(3-fluoro-2-hydroxyphenyl)-1-hydroxyethyl]-8-[(3,3,3-trifluoropropyl)amino]imidazo[1,2-b]pyridazin-3-yl}-2-methylbenzamide] | 0.3 | 36
4 | Cc1cc(-c2cnc3c(NCCC(F)(F)F)cc(Cc4cccc(F)c4)nn23)ccc1C(=O)NC1CC1 [Comparative Example 3, N-Cyclopropyl-4-{6-(3-fluorobenzyl)-8-[(3,3,3-trifluoropropyl)amino]imidazo[1,2-b]pyridazin-3-yl}-2-methylbenzamide, reference compound] | – | 43
5 | COc1ccc(C(F)(F)c2cc(NCCC(F)(F)F)c3ncc(-c4ccc(C(=O)NC5CC5)c(C)c4)n3n2)cc1F [Compound A2, N-Cyclopropyl-4-{6-[difluoro(3-fluoro-4-methoxyphenyl)methyl]-8-[(3,3,3-trifluoropropyl)amino]imidazo[1,2-b]pyridazin-3-yl}-2-methylbenzamide] | 0.6 | 64
6 | COc1ccc(C(=O)c2cc(NCCC(F)(F)F)c3ncc(-c4ccc(C(=O)NC5CC5)c(C)c4)n3n2)cc1F [Compound A13, N-Cyclopropyl-4-{6-(3-fluoro-4-methoxybenzoyl)-8-[(3,3,3-trifluoropropyl)amino]imidazo[1,2-b]pyridazin-3-yl}-2-methylbenzamide] | – | 75
7 | Cc1cc(-c2cnc3c(NCCC(F)(F)F)cc(C4(c5cccc(F)c5F)CC4)nn23)ccc1C(=O)NC1CC1 [Compound A17, N-Cyclopropyl-4-{6-[1-(2,3-difluorophenyl)cyclopropyl]-8-[(3,3,3-trifluoropropyl)amino]imidazo[1,2-b]pyridazin-3-yl}-2-methylbenzamide] | – | 50
8 | COc1cccc(Cc2cc(NCCC(F)(F)F)c3ncc(-c4ccc(C(=O)NC5CC5)c(C)c4)n3n2)c1 [Comparative Example 4, N-cyclopropyl-4-{6-(3-methoxybenzyl)-8-[(3,3,3-trifluoropropyl)amino]imidazo[1,2-b]pyridazin-3-yl}-2-methylbenzamide, reference compound] | – | 18
9 | Cc1cc(-c2cnc3c(NCCC(F)(F)F)cc(C(F)(F)c4cc(F)ccc4F)nn23)ccc1C(=O)NC1CC1 [Compound A21, N-Cyclopropyl-4-{6-[(2,5-difluorophenyl)(difluoro)methyl]-8-[(3,3,3-trifluoropropyl)amino]imidazo[1,2-b]pyridazin-3-yl}-2-methylbenzamide] | 0.5 | –
10 | COc1ccc(C(F)(F)c2cc(NCCC(F)(F)F)c3ncc(-c4ccc(C(=O)NC5CC5)c(C)c4)n3n2)cc1 [Compound A16, N-Cyclopropyl-4-{6-[difluoro(4-methoxyphenyl)methyl]-8-[(3,3,3-trifluoropropyl)amino]imidazo[1,2-b]pyridazin-3-yl}-2-methylbenzamide] | – | 56
11 | COc1ccc(Cc2cc(NCCC(F)(F)F)c3ncc(-c4ccc(C(=O)NC5CC5)c(C)c4)n3n2)cc1 [Comparative Example 5, N-Cyclopropyl-4-{6-(4-methoxybenzyl)-8-[(3,3,3-trifluoropropyl)amino]imidazo[1,2-b]pyridazin-3-yl}-2-methylbenzamide, reference compound] | – | 35
12 | Cc1cc(-c2cnc3c(NCCC(F)(F)F)cc(C(F)(F)c4cccc(F)c4)nn23)ccc1C(=O)NC1CC1 [Compound A6, N-Cyclopropyl-4-{6-[difluoro(3-fluorophenyl)methyl]-8-[(3,3,3-trifluoropropyl)amino]imidazo[1,2-b]pyridazin-3-yl}-2-methylbenzamide] | – | 70
13 | C=C(c1cc(NCCC(F)(F)F)c2ncc(-c3ccc(C(=O)NC4CC4)c(C)c3)n2n1)c1cc(F)ccc1F [Compound A19, N-Cyclopropyl-4-{6-[1-(2,5-difluorophenyl)vinyl]-8-[(3,3,3-trifluoropropyl)amino]imidazo[1,2-b]pyridazin-3-yl}-2-methylbenzamide] | 0.6 | –
14 | Cc1cc(-c2cnc3c(NCCC(F)(F)F)cc(C4(c5cc(F)ccc5F)CC4)nn23)ccc1C(=O)NC1CC1 [Compound A20, N-Cyclopropyl-4-{6-[1-(2,5-difluorophenyl)cyclopropyl]-8-[(3,3,3-trifluoropropyl)amino]imidazo[1,2-b]pyridazin-3-yl}-2-methylbenzamide] | 0.8 | –
15 | Cc1cc(-c2cnc3c(NCCC(F)(F)F)cc(C4(c5cc(F)ccc5O)CC4)nn23)ccc1C(=O)NC1CC1 [Compound A23, N-cyclopropyl-4-{6-[1-(5-fluoro-2-hydroxyphenyl)cyclopropyl]-8-[(3,3,3-trifluoropropyl)amino]imidazo[1,2-b]pyridazin-3-yl}-2-methylbenzamide] | – | 40
16 | COc1ccc(Cc2cc(NCCC(F)(F)F)c3ncc(-c4ccc(C(=O)NC5CC5)c(C)c4)n3n2)cc1F [Comparative Example 1, N-Cyclopropyl-4-{6-(3-fluoro-4-methoxybenzyl)-8-[(3,3,3-trifluoropropyl)amino]imidazo[1,2-b]pyridazin-3-yl}-2-methylbenzamide, reference compound] | – | 29
17 | C=C(c1ccc(OC)c(F)c1)c1cc(NCCC(F)(F)F)c2ncc(-c3ccc(C(=O)NC4CC4)c(C)c3)n2n1 [Compound A1, N-Cyclopropyl-4-{6-[1-(3-fluoro-4-methoxyphenyl)ethenyl]-8-[(3,3,3-trifluoropropyl)amino]imidazo[1,2-b]pyridazin-3-yl}-2-methylbenzamide] | – | 39
18 | Cc1cc(-c2cnc3c(NCCC(F)(F)F)cc(Cc4cccc(F)c4O)nn23)ccc1C(=O)NC1CC1 [Comparative Example 2, N-Cyclopropyl-4-{6-(3-fluoro-2-hydroxybenzyl)-8-[(3,3,3-trifluoropropyl)amino]imidazo[1,2-b]pyridazin-3-yl}-2-methylbenzamide, reference compound] | – | 3
